Reference: BindingDB's records for PubMed 32698113 (Sichuan University, 2020)

Experiment: Inhibition of human neutrophil elastase activity assessed as reduction in […]

With `COc1cc2c(c3c1CCC(c1ccccc1)O3)C1C3C(c4ccc(O)c(C)c4OC)C(C(O)(OC)c4ccccc4)C14C(C=CC(=O)C4OC)OC3(c1ccccc1)O2` (stereo unspecified) the IC50 was > 10 µM.
